From US11696924B2, “Combination therapy using PDK1 and PI3K inhibitors” (MEMORIAL SLOAN-KETTERING CANCER CENTER, priority 2015, dated 2023)
“Also recorded” adds a separate entry of the source. Like-named read-outs stand apart in the source and are kept apart here.

What was measured:
[1] = tested on: pNDRG1 (T346); test: Western blot of NDRG1 phosphorylation (T346); type: cell-based
Protocol: A) SGK1 mRNA levels in breast cancer cell lines sensitive or resistant to BYL719 (n=27). B) SGK1 mRNA levels in PIK3CA-mutant breast cancer cell lines sensitive or resistant to BYL719. C) Western blot of SGK1, SGK2, SGK3 and phosphorylated NDRG1 in a panel of PIK3CA—mutant breast cancer cell lines sensitive or resistant to BYL719. D) Western blot for NDRG1 and phosphorylated NDRG1 (T346) in BYL719-sensitive and -resistant breast cancer cell lines treated with BYL719 (1 μM) for 4 h. […] P values are calculated using Student's t-test. Error bars are ±SEM.
A) Dose-response curves from MDA-MB-361 cells transduced with pLenti7.3-LacZ or pLenti7.3-SGK1 (Δ60, S422D) treated with increasing concentrations of BYL719 for 6 days. B) Western blot analysis of LacZ and SGK1 MDA-MB-361 cells treated with BYL719 (1 μM) for 4 h. […] The DFG motif amino acids are indicated (D240, F241, G242). […] Hydrogen bonds are shown as dotted lines. […] L) IHC analysis of tumors from K collected at the end of the experiment. M) Top panel: growth curves of HCC1954 cells stably expressing doxycycline-inducible control (REN) or SGK1 knockdown treated with increasing concentrations of BYL719 for 6 days. Bottom panel: Western blot analysis of GFP-sorted control (REN) and SGK1 shRNA cells treated with BYL719 (1 μM) for 4 h. P values are calculated using Student's t-test. Error bars are ±SEM.
(§1) Then, membranes were probed using specific antibodies.

[2] = tested on: mTORC1; test: Western blot of mTORC1 signaling (pS6K, pS6, p4EBP1); type: cell-based; conditions: for sustained S6 phosphorylation: HCC1954 cells, presence or absence of BYL719 (1 μM)
Text: (§2) For western blot analysis proteins were extracted in RIPA buffer supplemented with protease and phosphatase inhibitors (Roche). Protein lysates were separated using SDS-PAGE gels and transferred to a PVDF membrane. Then, membranes were probed using specific antibodies. PDK1, pAKT (S473), pAKT (T308), pS6K (T389), pS6 (S240/4), pS6 (235/6), p4EBP1 (S65), PARP, Actin, pRSK (S227), cleaved Caspase 3, pFOXO1/3 (T24/T32), SGK1, SGK2, SGK3, pNDRG1 (T346), NDRG1, Flag, HA, and phospho-RXRXX(S/T) (SEQ ID NO: 1) were from Cell Signaling Technology (CST).

[3] = tested on: TSC2 (S939); test: Western blot of phosphorylated TSC2 (S939); type: cell-based; conditions: HCC1954, PD0325901 1 μM, GSK1120212 50 nM, ± BYL719, 4 h
[4] = tested on: S6K signaling; conditions: up to 30 μM, 4 h, TSC2 KO mouse fibroblasts
Protocol: (§3) Recombinant GST-S6 was used as a substrate and phosphorylated S6 (S235/6) antibody was used for the detection of phosphorylated substrate by Western blot. […] Everolimus was used as a positive control at 200 nM. Error bars are ±SEM. […] Quantification of the m^7GTP-precipitated proteins is indicated in fold change. AZD8055 is used as a control at 1 μM). […] Error bars are ±SEM.
as §2

[5] = biological target: S6K1; test: recombinant in vitro kinase assay of S6K ([…] peptide substrate); type: biochemical
[6] = biological target: mTOR (Homo sapiens, UniProt P42345); conditions: read-out: IC50, mTOR; 4EBP1 as substrate
[7] = tested on: S6K signaling; test: Western blot of S6K targets in fibroblasts of a TSC2-null lymphangioleiomyomatosis patient; conditions: up to 30 μM, 4 h, TSC2-null LAM patient fibroblasts
Protocol: as §3, §2

[8] = tested on: CaCO2 cells; conditions: cited from earlier work
[9] = biological target: SGK3 (Homo sapiens, UniProt Q96BR1); test: in vitro SGK3 kinase activity assay; type: biochemical
[10] = tested on: PKC; test: selectivity screening, panel of 140 kinases; conditions: 1 μM
Protocol: (§4) IC50 value is indicated. […] Recombinant GST-S6 was used as a substrate and phosphorylated S6 (S235/6) antibody was used for the detection of phosphorylated substrate by Western blot. IC50 value is indicated. […] Everolimus was used as a positive control at 200 nM. Error bars are ±SEM. […] Quantification of the m^7GTP-precipitated proteins is indicated in fold change. AZD8055 is used as a control at 1 μM). […] Error bars are ±SEM.

[11] = biological target: SGK2 (Homo sapiens, UniProt Q9HBY8); test: in vitro SGK2 kinase activity assay; type: biochemical
[12] = biological target: AKT1 (Homo sapiens, UniProt P31749); test: selectivity screening, panel of 140 kinases; conditions: 1 μM
Protocol: as §4

[13] = biological target: SGK1 (Homo sapiens, UniProt O00141); test: ATP-competition assay; conditions: ATP at 100, 250, 350 and 500 μM
Text: Recombinant GST-S6 was used as a substrate and phosphorylated S6 (S235/6) antibody was used for the detection of phosphorylated substrate by Western blot.

[14] = tested on: RSK; test: selectivity screening, panel of 140 kinases; conditions: 1 μM
Protocol: as §4

[15] = biological target: S6K (Homo sapiens, UniProt P23443); test: selectivity screening, panel of 140 kinases; conditions: 1 μM
Protocol: as §4

[16] = tested on: S6K (ΔCT T389E); test: S6K kinase assay in 293T cells overexpressing constitutively active S6K; type: cell-based
[17] = biological target: PDK1 (Homo sapiens, UniProt O15530); test: selectivity screening, panel of 140 kinases; conditions: 1 μM
Protocol: as §4

[18] = tested on: HCC1954 xenografts; test: HCC1954 in vivo xenograft; set-up: species or system mice; conditions: HCC1954 xenografts, end of the experiment
Protocol: Animals were maintained and treated in accordance with Institutional Guidelines of Memorial Sloan Kettering Cancer Center (Protocol number 12-10-019). 5×10^6 cells in 1:1 PBS/Matrigel (Corning) were injected subcutaneously into six-week-old female athymic Foxn1^nu nude mice.
When tumors reached a volume of ˜150 mm^3 mice were randomized, treated, and tumors were measured twice a week during a month. At least 10 tumors per group were used in all the studies. […] Tumors were harvested at the end of the experiment three hours after the last dosage, fixed in 4% formaldehyde in PBS, and paraffin-embedded. […] Primary staining was followed by 60 minutes incubation with biotinylated goat anti-rabbit IgG (Vector labs) 1:200. Blocker D, Streptavidin-HRP and DAB detection kit (Ventana Medical Systems) were used according to the manufacturer instructions.

[19] = tested on: pRSK2 (S227); test: Western blot of phosphorylated RSK2 (S227), PDK1 target; type: cell-based; conditions: HCC1954 and JIMT1, 1 μM
Protocol: A) Dose-response curves from HCC1954 or JIMT1 shGFP and shPDK1 cells treated with BYL719 for 6 days. […] Staurosporine is used as a positive control (1 μM; 4 h). E) HCC1954 shGFP and shPDK1 in vivo xenograft treated with Vehicle or BYL719 (n=10/arm). F) IHC analysis of tumors from E collected at the end of the experiment. […] Staurosporine is used as a positive control (1 μM, 4 h). […] L) IHC analysis of tumors from K collected at the end of the experiment. M, N) JIMT1 in vivo xenograft tested as described in (K) and (L) for HCC1954 in vivo xenograft. P values are calculated using Student's t-test. Error bars are ±SEM.
as §1

Sequence of SGK1 (O00141 whole entry): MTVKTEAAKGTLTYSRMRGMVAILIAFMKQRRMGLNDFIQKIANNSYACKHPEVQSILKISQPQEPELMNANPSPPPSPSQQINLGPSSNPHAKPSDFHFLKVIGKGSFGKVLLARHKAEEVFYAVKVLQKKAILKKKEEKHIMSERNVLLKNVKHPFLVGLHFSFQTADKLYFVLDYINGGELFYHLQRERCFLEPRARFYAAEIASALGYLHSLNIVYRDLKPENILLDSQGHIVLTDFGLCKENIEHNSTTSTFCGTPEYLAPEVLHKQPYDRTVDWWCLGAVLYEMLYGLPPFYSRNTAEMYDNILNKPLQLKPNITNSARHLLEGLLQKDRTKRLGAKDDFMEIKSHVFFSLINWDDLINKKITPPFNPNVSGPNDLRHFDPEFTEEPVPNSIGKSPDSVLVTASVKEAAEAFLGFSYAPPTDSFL
Sequence of PDK1 (O15530 whole entry): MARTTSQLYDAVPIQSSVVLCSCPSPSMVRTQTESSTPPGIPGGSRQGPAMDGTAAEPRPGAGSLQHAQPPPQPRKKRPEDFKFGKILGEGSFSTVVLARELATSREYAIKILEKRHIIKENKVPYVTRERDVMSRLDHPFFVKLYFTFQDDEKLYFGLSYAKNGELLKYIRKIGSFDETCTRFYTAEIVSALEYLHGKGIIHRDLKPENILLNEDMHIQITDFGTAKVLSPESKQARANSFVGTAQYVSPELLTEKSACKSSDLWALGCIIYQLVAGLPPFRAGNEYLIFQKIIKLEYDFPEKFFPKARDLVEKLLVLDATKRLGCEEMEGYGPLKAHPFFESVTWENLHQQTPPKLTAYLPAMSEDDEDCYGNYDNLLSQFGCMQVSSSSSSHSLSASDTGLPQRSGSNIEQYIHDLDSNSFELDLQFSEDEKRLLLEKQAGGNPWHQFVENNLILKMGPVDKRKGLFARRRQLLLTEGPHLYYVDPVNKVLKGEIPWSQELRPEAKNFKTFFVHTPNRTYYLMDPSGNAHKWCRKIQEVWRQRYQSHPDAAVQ
Sequence of S6K (P23443 whole entry): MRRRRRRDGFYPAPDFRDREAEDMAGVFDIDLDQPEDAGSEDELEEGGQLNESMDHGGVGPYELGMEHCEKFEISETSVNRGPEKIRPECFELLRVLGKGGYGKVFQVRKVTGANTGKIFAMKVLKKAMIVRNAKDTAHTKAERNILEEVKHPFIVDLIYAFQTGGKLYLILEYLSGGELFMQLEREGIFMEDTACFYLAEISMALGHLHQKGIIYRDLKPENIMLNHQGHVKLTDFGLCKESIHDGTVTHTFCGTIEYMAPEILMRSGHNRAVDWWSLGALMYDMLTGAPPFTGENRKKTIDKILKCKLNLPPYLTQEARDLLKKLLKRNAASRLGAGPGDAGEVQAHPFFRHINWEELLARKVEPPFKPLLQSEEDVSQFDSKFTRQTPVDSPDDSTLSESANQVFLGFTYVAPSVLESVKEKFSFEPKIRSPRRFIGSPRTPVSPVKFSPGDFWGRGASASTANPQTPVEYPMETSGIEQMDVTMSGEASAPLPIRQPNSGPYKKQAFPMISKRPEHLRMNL
Sequence of AKT1 (P31749 whole entry): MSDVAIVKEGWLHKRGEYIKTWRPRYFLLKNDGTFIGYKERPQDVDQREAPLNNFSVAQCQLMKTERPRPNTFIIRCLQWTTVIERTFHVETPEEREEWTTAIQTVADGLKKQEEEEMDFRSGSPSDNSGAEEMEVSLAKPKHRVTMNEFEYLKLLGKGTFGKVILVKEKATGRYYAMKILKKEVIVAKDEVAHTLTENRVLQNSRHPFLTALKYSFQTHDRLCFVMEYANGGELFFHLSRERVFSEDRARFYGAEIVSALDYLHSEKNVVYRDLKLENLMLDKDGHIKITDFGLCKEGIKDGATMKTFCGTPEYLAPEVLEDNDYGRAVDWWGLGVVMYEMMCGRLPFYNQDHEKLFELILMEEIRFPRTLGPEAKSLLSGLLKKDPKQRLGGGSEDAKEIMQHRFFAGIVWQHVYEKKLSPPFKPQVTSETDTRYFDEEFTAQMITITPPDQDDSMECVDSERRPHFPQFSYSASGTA
Sequence of SGK2 (Q9HBY8 whole entry): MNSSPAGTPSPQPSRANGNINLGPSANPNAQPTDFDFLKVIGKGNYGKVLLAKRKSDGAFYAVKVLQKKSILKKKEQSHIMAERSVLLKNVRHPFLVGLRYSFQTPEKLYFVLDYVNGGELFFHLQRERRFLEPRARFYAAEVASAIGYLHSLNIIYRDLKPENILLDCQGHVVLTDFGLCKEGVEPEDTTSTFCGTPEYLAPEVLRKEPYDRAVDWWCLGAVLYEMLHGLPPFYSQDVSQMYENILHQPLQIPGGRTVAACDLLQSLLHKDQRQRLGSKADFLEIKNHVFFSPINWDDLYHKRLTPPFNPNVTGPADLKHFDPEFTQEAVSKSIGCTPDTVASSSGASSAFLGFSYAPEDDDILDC
Sequence of SGK3 (Q96BR1 whole entry): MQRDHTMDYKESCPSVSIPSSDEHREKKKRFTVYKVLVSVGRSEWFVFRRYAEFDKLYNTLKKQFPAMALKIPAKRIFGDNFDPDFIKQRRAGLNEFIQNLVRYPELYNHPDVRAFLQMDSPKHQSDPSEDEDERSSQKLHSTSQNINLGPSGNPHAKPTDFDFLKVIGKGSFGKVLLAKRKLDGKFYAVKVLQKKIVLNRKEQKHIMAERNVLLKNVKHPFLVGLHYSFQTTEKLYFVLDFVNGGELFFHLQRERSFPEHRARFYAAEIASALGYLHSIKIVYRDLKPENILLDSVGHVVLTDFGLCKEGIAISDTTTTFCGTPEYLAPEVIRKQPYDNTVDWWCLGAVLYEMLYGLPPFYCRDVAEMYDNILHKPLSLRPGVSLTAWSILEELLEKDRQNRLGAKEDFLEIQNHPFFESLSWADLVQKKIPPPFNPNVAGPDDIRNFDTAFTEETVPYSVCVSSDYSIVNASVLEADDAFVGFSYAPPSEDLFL

COc1ccc(-c2ccc3c(N4CCOC[C@@H]4C)nc(N4CCOC[C@@H]4C)nc3n2)cc1CO [AZD8055]
pFOXO3 (T32) and pNDRG1 (T346) levels ([1]; HCC1954, increasing concentrations, single agent): did not reduce the levels of the substrates pFOXO3 (T32) and pNDRG1 (T346)

O=CC[C@@H](O)[C@H](O)[C@H](O)CO [2-deoxyglucose]
sustained S6 phosphorylation [2]: unable to rescue the sustained phosphorylation of S6

O=C(NOC[C@H](O)CO)c1ccc(F)c(F)c1Nc1ccc(I)cc1F [PD0325901]
TSC2 phosphorylation at S939 (or mTORC1 downstream signaling) [3]: did not detect changes in TSC2 phosphorylation at S939

Nc1n[nH]c2nc(-c3ccc(NS(=O)(=O)c4cccc(Cl)c4Cl)cc3)cnc12 [SGK1-inh]
S6K signaling: pS6 (S235/6), pS6 (S240/4), pmTOR (S2448) [4]: not able to reduce S6K signaling | IC50 [5]: 0.033 µM | IC50 [6]: > 5 µM | S6K signaling: pS6 (S235/6), pS6 (S240/4), pmTOR (S2448) [7]: not able to reduce S6K signaling | permeability [8]: 133 nm/s | IC50 [9]: 0.59 µM | activity against PKC [10]: no activity | IC50 [11]: 0.0028 µM | activity against AKT1 [12]: no activity | effect of increasing ATP on potency [13]: decreased the potency | activity against RSK [14]: no activity | appropriate concentration to inhibit endogenous SGK1 (NDRG1 phosphorylation) ([1]; HCC1954 cells, 4 hours, in the presence of BYL719 (1 μM)): 10 µM | activity against S6K [15]: inhibited | IC50 ([16]; 293T cells, HA-S6K (ΔCT T389E), GST-S6 substrate, read-out: IC50, S6K at the cellular level): ~20 µM | concentrations below which there is no activity towards S6K ([16]; conclusion from cellular S6K assays): 20 to 30 µM | activity against PDK1 [17]: no activity | pS6 (S240/4) and 4EBP1 (T37/46) in tumors, IHC [18]: remained elevated | mTORC1 signaling ([2]; BYL719-resistant cells (HCC1954, JIMT1), 4 h, BYL719 1 μM, GSK2334470 1 μM, SGK1-inh 10 μM): some activity towards S6K signaling

CC(=O)Nc1cccc(-n2c(=O)n(C3CC3)c(=O)c3c(Nc4ccc(I)cc4F)n(C)c(=O)c(C)c32)c1 [GSK1120212]
TSC2 phosphorylation at S939 (or mTORC1 downstream signaling) [3]: did not detect changes in TSC2 phosphorylation at S939

N#Cc1c(O)c2c(-c3ccc(-c4ccccc4O)cc3)csc2[nH]c1=O [A769662]
sustained S6 phosphorylation [2]: unable to rescue the sustained phosphorylation of S6

CNc1nc(-c2ccc3c(N)n[nH]c3c2)cc(N2C[C@@H](C(=O)NC3CCCCC3)CC[C@H]2C)n1 [GSK2334470]
pRSK2 (S227) [19]: appreciably reduced; also recorded: inhibited when cells are treated with GSK2334470 alone or in combination | phosphorylation of FOXO3 and NDRG1, added to AZD8055 ([1]; HCC1954, GSK2334470 1 μM plus AZD8055): marked decrease in the phosphorylation of both FOXO3 and NDRG1
